According to the supplement of paper PMC10307832:

Compound: Cc1ccccc1C(C(=O)NC1CCCCC1)N(C(=O)Cn1ccnc1C)c1cccc(F)c1 [IDH-C35] + Cc1cc(Nc2cc(N3CCN(C)CC3)nc(Sc3ccc(NC(=O)C4CC4)cc3)n2)n[nH]1 [Tozasertib] (partner 0.1 µM)
Assay: relative viability (nuclei count vs DMSO), 5 days (fraction); higher = more cells survive
Conditions: first compound 0.8 µM
Summary of the method: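 Values are medians from duplicate plates. Each reflects relative viability, defined as the nuclei count of treated wells over that of vehicle wells. Lung cancer cell lines in 1536-well plates were pin-tool dosed one day after seeding with one drug alone or with a fixed anchor-drug dose plus five library-drug doses (not always all listed) in √10 steps, then fixed, stained and imaged at 4× after 5 days.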

| Cell Line | relative viability |
| --- | --- |
| NCI-H596 | 0.937 |
| LK-2 | 0.178 |
| NCI-H2087 | 0.279 |
| NCI-H2342 | 0.483 |
| SK-MES-1 | 0.88 |
| H3255 | 0.522 |
| COR-L23 | 0.263 |
| COR-L 105 | 0.386 |
| LOU-NH91 | 0.687 |
| ChaGo-K-1 | 0.221 |
| NCI-H2170 | 0.678 |
| NCI-H2405 | 0.758 |
| HOP-62 | 0.334 |
| HCC-44 | 1 |
| SW 900 | 0.585 |
| LU99A | 0.257 |
| NCI-H1648 | 0.511 |
| HCC-78 | 0.388 |

Same assay, conditions: first compound 2.53 µM

| Cell Line | relative viability |
| --- | --- |
| NCI-H522 | 0.581 |
| NCI-H1623 | 0.452 |
| NCI-H727 | 0.606 |
| NCI-H1650 | 0.444 |
| NCI-H1993 | 0.579 |
| SW 1573 | 0.194 |
| NCI-H838 | 0.281 |
| LCLC-103H | 0.499 |
| NCI-H520 | 0.405 |
| NCI-H2126 | 0.824 |
| EMC-BAC-2 | 0.28 |
| NCI-H2085 | 0.793 |
| NCI-H1666 | 0.58 |
| LK-2 | 0.184 |
| NCI-H2342 | 0.494 |
| SK-MES-1 | 0.863 |
| H3255 | 0.511 |
| COR-L23 | 0.195 |
| COR-L 105 | 0.383 |
| LOU-NH91 | 0.598 |
| ChaGo-K-1 | 0.258 |
| NCI-H2170 | 0.728 |
| NCI-H2405 | 0.716 |
| HOP-62 | 0.382 |
| HCC-44 | 0.903 |
| SW 900 | 0.615 |
| LU99A | 0.296 |
| NCI-H1648 | 0.525 |
| HCC-78 | 0.383 |

Same assay, conditions: first compound 8 µM

| Cell Line | relative viability |
| --- | --- |
| NCI-H522 | 0.611 |
| NCI-H1623 | 0.431 |
| NCI-H727 | 0.558 |
| NCI-H1650 | 0.355 |
| NCI-H1993 | 0.536 |
| SW 1573 | 0.184 |
| NCI-H838 | 0.234 |
| LCLC-103H | 0.38 |
| NCI-H520 | 0.409 |
| NCI-H2126 | 0.884 |
| EMC-BAC-2 | 0.283 |
| NCI-H2085 | 0.718 |
| HCC-366 | 0.0826 |
| NCI-H1666 | 0.536 |
| NCI-H596 | 0.788 |
| LK-2 | 0.203 |

| Cell Line | relative viability |
| --- | --- |
| NCI-H2087 | 0.264 |
| NCI-H2342 | 0.442 |
| SK-MES-1 | 0.761 |
| H3255 | 0.703 |
| COR-L23 | 0.158 |
| COR-L 105 | 0.337 |
| LOU-NH91 | 0.652 |
| ChaGo-K-1 | 0.203 |
| NCI-H2170 | 0.693 |
| NCI-H2405 | 0.689 |
| HOP-62 | 0.331 |
| HCC-44 | 0.96 |
| SW 900 | 0.508 |
| LU99A | 0.257 |
| NCI-H1648 | 0.541 |
| HCC-78 | 0.254 |
